# Assay results: PubChem BioAssay AID1576 (EPA DSSTox, 2009)
# Calls of active or inactive are those of the source.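 The calls were made as follows: active = chemicals shown by follow-up kinetic tests to compete for rat estrogen receptor sites, with a measured inhibition constant; inconclusive = some binding seen but constant unmeasurable owing to poor solubility; inactive = no binding up to top dose, or binding unconfirmed.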
# Molecular target: Estrogen receptor (Rattus norvegicus) (UniProt P06211)
# Sequence (P06211 whole entry, looked up): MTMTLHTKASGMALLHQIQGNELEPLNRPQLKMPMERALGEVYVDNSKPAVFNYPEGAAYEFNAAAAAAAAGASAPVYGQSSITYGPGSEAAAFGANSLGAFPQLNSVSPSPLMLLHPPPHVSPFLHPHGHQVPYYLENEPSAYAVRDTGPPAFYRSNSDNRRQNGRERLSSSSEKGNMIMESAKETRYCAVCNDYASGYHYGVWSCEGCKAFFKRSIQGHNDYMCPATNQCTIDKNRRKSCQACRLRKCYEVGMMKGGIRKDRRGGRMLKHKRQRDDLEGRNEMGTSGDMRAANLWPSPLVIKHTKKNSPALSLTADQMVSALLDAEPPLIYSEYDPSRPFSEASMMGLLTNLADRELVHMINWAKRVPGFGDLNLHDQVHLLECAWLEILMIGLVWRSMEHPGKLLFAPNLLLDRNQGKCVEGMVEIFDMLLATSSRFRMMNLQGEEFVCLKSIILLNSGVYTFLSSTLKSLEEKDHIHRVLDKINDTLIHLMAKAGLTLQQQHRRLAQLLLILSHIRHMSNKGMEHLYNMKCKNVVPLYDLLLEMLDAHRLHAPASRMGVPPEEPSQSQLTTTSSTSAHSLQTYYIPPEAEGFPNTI
# Experiment: DSSTox (KIERBL) EPA Estrogen Receptor Ki Binding Study (Laws et al.) Database
# Details: Rat uterine cytosol ER, 3H-estradiol competitive binding
# Experimental: This study was conducted by EPA researchers to evaluate the validity of the rat uterine cytosolic (RUC) estrogen receptor (ER) competitive binding assay for use in the Endocrine Disruption Screening Program (EDSP). The assay measures the ability of radiolabeled 17-beta-estradiol (3H-E2) to bind with RUC ER in the presence of increasing concentrations of a test chemical. The goal is to employ this in vitro assay as a 1st tier screening tool for assessing the potential of structurally diverse environmental chemicals to bind to the ER, as well as to support research efforts to develop computational models to predict ER binding. A distinguishing feature of the present study was the use of secondary experimental analysis of binding curves and determination of Ki values to confirm that measured IC50 values corresponded to true positive results. The study concluded that a number of experimental conditions can confound interpretation of IC50 values obtained from the RUC ER-binding assay data and lead to false positive results. In particular, some chemical treatments likely alter the stability of the assay by changing the buffer pH, denaturing ER, or disrupting the ER binding kinetics. […] The chemicals used in this study were selected as part of a validation test for two Quantitative Structure-Activity Relationship (QSAR) models designed to predict ER binding [Fed. Reg. 67(250), 79618, Dec. 30, 2002]. Several hundred chemicals were initially screened, including approximately 100 chemicals selected from among the High Production Volume (HPV) chemicals included in EPA's Toxic Substances Control Act (TSCA) inventory that were predicted to be positive for ER binding, with the rest selected at random from the TSCA inventory. All chemicals were initially tested in ER competitive binding assays by Battelle Pacific Northwest Laboratories, Richland, Washington [EPA Contract Number 68-W-99-033, Task 6]. Approximately 50 chemicals produced binding curves that: (1) strongly implied competitive inhibition of ER binding, or (2) produced partial curves or irregular (non-sigmoid) binding curves. These chemicals were further evaluated in an ER competitive binding assay with secondary analysis to confirm true competitive inhibition and to determine an experimental Ki [U.S. EPA Contract 3D-5967-NTEX]. The results of RUC ER screening for these 50 structurally diverse chemicals, for which secondary confirmatory analyses were performed, were published in the Main Citation (Laws et al., 2006, Tox. Sci. 94:46-56). The remaining 228 chemicals were designated as non-binders based on initial screening studies.
# The DSSTox KIERBL data files include all published IC50 and Ki experimental results for the 50 chemicals included in the Main Citation (Laws et al., 2006) (denoted Group 1), as well as previously unpublished results for an additional 228 structually diverse TSCA chemicals for which no ER binding was observed (denoted Group 2. IC50 values were determined for 32 compounds in Group 1 as the concentration of a test chemical that inhibits the maximal specific binding of 0.33 nM radiolabeled (3H) 17-beta-estradiol (E2) to rat uterine cytosolic (RUC) estrogen receptor (ER) by 50%. Confirmation of binding status was accomplished by secondary analysis using Lineweaver-Burk plots and slope replots to determine true competitive inhibition and an experimental Ki value. Ki is the inhibition constant for the test chemical, i.e., the concentration of the test chemical that will bind to half the binding sites at equilibrium (displacing half of the probe-bound receptors), in the absence of radioligand or other competitors. Ki reported as Mean +/- Standard Error from n=2 experiments (see StandardError_Ki_n2) and is determined from Lineweaver-Burk plots over the tested dose range (TestedRange_microM). For more information see BindingCurve_Group and BindingCurve_Details. […]
row,Structure (SMILES),outcome
1,O=C(Cl)c1ccccc1C(=O)Cl,inactive; none
2,Cc1ccc(C)c(O)c1C,inactive; none
3,Cc1cc(C(C)(C)C)cc(C)c1C,inactive; none
4,CC(C)(C)CC(C)(C)c1ccc(O)c(-n2nc3ccccc3n2)c1,inactive; none
5,CCOC(=O)CCC(=O)OCC,inactive; none
6,CCN(CCO)c1ccc(N=Nc2ccc([N+](=O)[O-])cc2Cl)cc1,inactive; none
7,N#Cc1cc([N+](=O)[O-])ccc1N,inactive; none
8,O=NN(c1ccccc1)c1ccccc1,inactive; none
9,Cc1cc(C)c(C)cc1C,inactive; none
10,ClC(Cl)C(Cl)Cl,inactive; none
11,C=C(C)c1ccc(C(=C)C)cc1,inactive; none
12,OCC1CC2C=CC1C2 (stereo not given),inactive; none
13,CCCCNCCCCCCNCCCC,inactive; none
14,O=C(Oc1ccccc1)c1ccc2ccccc2c1O,inactive; none
15,COC(=O)c1ccccc1S(=O)(=O)NC(=O)N(C)c1nc(C)nc(OC)n1,inactive; none
16,NC(=O)c1ccc(N)cc1,inactive; none
17,CCc1ccc(CC)cc1,inactive; none
18,O=C(OCc1ccccc1)C(=O)OCc1ccccc1,inactive; none
19,CC1COc2ccccc2N1C(=O)C(Cl)Cl (stereo not given),inactive; none

row,Structure (SMILES),outcome
1,C[Si]1(C)N[Si](C)(C)N[Si](C)(C)N1,inactive; incomplete
2,CCCCCCOC(=O)c1ccccc1C(=O)OCCCCCC,inactive; none
3,CC(C)(C)c1cc(Cc2cc(C(C)(C)C)c(O)c(C(C)(C)C)c2)cc(C(C)(C)C)c1O,inactive; none
4,NNC(=O)c1cccc(C(=O)NN)c1,inactive; none
5,C=CC(=O)OCC(C)C,inactive; none
6,CCCCOCCCOC(=O)COc1ccc(Cl)cc1Cl,inactive; none
7,O=Cc1ccc(F)cc1,inactive; none
8,CN1CSC(=S)N(C)C1,inactive; none
9,NCCCCCCNCCCCCCN,inactive; none
10,CCCCCCCCCCCCCCCCCCN=C=O,inactive; none
11,CCN(CC)c1nc(C)cc(OP(=S)(OC)OC)n1,inactive; none
12,C=CC(=O)OCCC(F)(F)C(F)(F)C(F)(F)C(F)(F)C(F)(F)C(F)(F)C(F)(F)C(F)(F)C(F)(F)C(F)(F)F,inactive; incomplete
13,CC(C)(C)c1cc(-n2nc3ccc(Cl)cc3n2)c(O)c(C(C)(C)C)c1,inactive; none
14,CC(c1cc(C(C)(C)C)cc(C(C)(C)C)c1O)c1cc(C(C)(C)C)cc(C(C)(C)C)c1O,inactive; none
15,CO[Si](CCCN)(OC)OC,inactive; none
16,COc1cc([N+](=O)[O-])ccc1N,inactive; none
17,COc1ccc(C=O)cc1OC,inactive; incomplete
18,CCCCCCCC=O,inactive; irregular
19,CC(C)(C)c1cc(C(C)(C)c2ccc(O)c(C(C)(C)C)c2)ccc1O,inactive; incomplete

row,Structure (SMILES),outcome
1,CCCCCCC(=O)O,inactive; none
2,NNC(=O)NN,inactive; none
3,O=Cc1ccccc1[N+](=O)[O-],inactive; none
4,CO[Si](CCCCl)(OC)OC,inactive; none
5,CCC(CO)(CO)CO,inactive; none
6,Cc1cc(-n2nc3ccc(Cl)cc3n2)c(O)c(C(C)(C)C)c1,inactive; none
7,CCO[Si](CCCCl)(OCC)OCC,inactive; none
8,CC(Cl)Cl,inactive; none
9,COc1ccc(C(=O)c2ccc(OC)cc2O)c(O)c1,inactive; none
10,O=C(Oc1ccccc1)c1ccccc1O,inactive; incomplete
11,CCCCN(CCCC)C(=S)[S-].CCCCN(CCCC)C(=S)[S-].[Ni+2],inactive; none
12,Fc1cccc(Cl)c1CCl,inactive; none
13,Cc1ccc([N+](=O)[O-])c(C)c1,inactive; none
14,O=C=NCCCCCCN=C=O,inactive; none
15,COc1cc(S(=O)(=O)O)c(C)cc1N=Nc1c(O)ccc2cc(S(=O)(=O)O)ccc12,inactive; none
16,O=C(OCc1ccccc1)c1ccccc1O,inactive; incomplete
17,O=S(=O)(O)c1ccc(N=Nc2c(O)ccc3ccccc23)cc1,inactive; none
18,CC(C)C(=O)C(C)C,inactive; none

# Same assay, conditions: Rat uterine cytosol ER, 3H-estradiol competitive binding; TestedRange_microM: 0.5-10
row,Structure (SMILES),outcome
1,CCCCCCCCCCCCCCCCCC[N+](C)(C)CCC[Si](OC)(OC)OC,inactive; irregular

# Same assay, conditions: Rat uterine cytosol ER, 3H-estradiol competitive binding; TestedRange_microM: 1-10
row,Structure (SMILES),outcome
1,CCCCCCCCCCCCCCN(C)C,inactive; complete

# Same assay, conditions: Rat uterine cytosol ER, 3H-estradiol competitive binding; TestedRange_microM: 10-100
row,Structure (SMILES),Potency [µM]
1,O=S(=O)(c1ccc(O)cc1)c1ccc(O)cc1,82.4

# Same assay, conditions: Rat uterine cytosol ER, 3H-estradiol competitive binding; TestedRange_microM: 44-178
row,Structure (SMILES),Potency [µM]
1,CCCCCCCc1ccc(O)cc1,177
